The source of these data is patent US20020054941A1, “Methods and compositions to enhance tenderness and value of meat” (The Board of Regents of the University of Nebraska, priority 2000, published 2002).

Entries after “also recorded” stand apart in the source; their conditions may differ. Marks after values point to notes of the source that are not given here.

Assay [1] has as its system sternomandibularis beef muscles. Description: Shear force of pre-rigor injected sectioned muscle. The following applies: 200 mM (glucose, calcium chloride 300 mM). The protocol: Pre-rigor beef muscle was sectioned into 100 g. samples at approximately 3 hours post-mortem. The pieces were injected with 10 mL of treatment solution followed by marination in the solution for 24 hours at 2° C. before testing pH and recording visual color of the muscle sections. For evaluation of shear force, samples were thawed, cooked, sliced (approximately 6 mm by 6 mm) and then cooled before readings were taken. The solutions used for this procedure were as described above for homogenized muscle.
Pre-rigor beef muscle was sectioned and the sections were injected at approximately 1 hour post-mortem with a volume of treatment solution equal to 10% of the muscle weight. Objective color measurements were taken on pieces of each muscle section and the pieces were then frozen, powdered and stored at −80° C. for up to 10 days before testing pH and analyzing oxidation-reduction potential. Shear force was evaluated as described immediately above. Solutions used in this procedure were as follows: sodium citrate (200 mM), sodium acetate (200 mM), glucose (300 mM), calcium citrate (200 mM), calcium chloride (300 mM), injection with water, and no injection (control). The calcium citrate solution was prepared as a suspension using 0.25% carrageenan and 200 mM calcium citrate due to its insolubility in water. However, use of calcium citrate can be optimized by increasing solubility by means known in the art.

The subject of assay [2] is semimembranosus beef muscles. Description: Glycogen content, pre-rigor injection of whole muscle. The protocol:
(§1) Experiment were conducted to test the effects of pre-rigor injection of several compounds. Effects of these compounds on pH, color, tenderness and other related traits of low-value beef cuts were investigated. Ten steers (22 to 24 mo of age, 515 to 676 kg live weight) were slaughtered according to current industry procedures. Pre-rigor semimembranosus (from the round), triceps brachii and supraspinatus muscles (from the chuck) were excised, after evisceration (approximately 1 hour post-mortem), from both sides of the carcass. Muscle sections were randomly assigned to the treatments: sodium citrate (NaC; 200 mM), sodium fluoride (NaF; 200 mM), sodium acetate (NaA; 200 mM), and calcium chloride (CaCl2; 300 mM). The control samples remained on the carcass at 2° C. for 24 hours to simulate commercial conditions. Following a cooling, control muscles were removed from each carcass (4 replicates), vacuum packaged and transferred to the holding cooler with the other cuts at 2° C. Calcium chloride treatment was included to be compared with the other treatments.
(§2) At 2 hours post-mortem, each muscle was injected with a volume equal to 8% of the muscle weight using a four-needle hand injector. The temperature of solutions were 4° C. Each muscle was individually treated (2% of solution was added to give a total of 10% of muscle weight) and tumbled in a 75-pound capacity tumbler (Röschermatic, Oshabrück, Germany) for 30 min to insure uniform distribution of the solution.
(§3) Samples of each muscle (approximately 100 g) were taken at 0 hour (before injection), 24, and 72 hours after injection for determination of pH, oxidation-reduction potential, glycogen content, R-values, NAD, and NADH. The samples were then immediately frozen in liquid nitrogen and stored at −80° C. until they were powdered and analyzed. Fresh muscle samples (approximately 20 g) were taken at 72 hours after injection and assayed immediately for water holding capacity and sarcomere length.
(§4) Glycogen extraction was performed in duplicate with 3 g of frozen-powdered muscle sample, which was homogenized with 0.6 N perchloric acid. Amylo-α-1,4-α-1,6- glucosidase from Aspergillus niger (No. A3514. Sigma Chemical, St. Louis, Mo.) was used for the breakdown of the glycogen molecules to free glucose following the method described by Roehrig and Allred (1974). Homogenate was incubated for 2 hours at 37° C., then 100 μL of 3 N perchloric acid was added to precipitate the proteins. After centrifugation, the supernatant was stored at 0-4° C., until analyzed, which was within 2 weeks.
(§5) The assay for glucose was run as described by Dalrymple and Hamm (1973) and Roehrig and Allred (1974), using glucose-6-phosphate dehydrogenase (No. G8878. Sigma Chemical, St. Louis, Mo.) and hexokinase (No. H5500. Sigma Chemical, St. Louis, Mo.). Briefly, the method involves an exoglucosidase, Amylogucosidase, from Aspergillus niger which hydrolyses the -α-D-(1-4) and -α-D-(1-6)-linkages of glycogen. The glucose formed is specifically determined with hexokinase and glucose-6-phosphate dehydrogenase. The glucose liberated after hydrolysis of glycogen is proportional to the increase of absorbance measured at 340 nm. Fifty μL of sample was incubated with 1 mL ATP, NADP, Glucose-6-phosphate dehydrogenase buffer and 5 μL hexokinase at 37° C. for 15 min. Absorbance was measured at 340 nm wavelength, light path=1 cm. The muscle glycogen content was calculated with the following formula: Glycogen (μmol glucose/g wet muscle weight)=111.882×absorbance. 111.882 is the dilution factor.

Assay [3] deals with supraspinatus beef muscles. The assay is described as above. The method, then:
as §1, §2, §3, §4, §5

Assay [4] relates to triceps brachii beef muscles. The description is as above. Particulars: 200 mM, calcium chloride 300 mM. The protocol:
as §1, §2, §3, §4, §5

Assay [5] has as its system semimembranosus beef muscles. Description: Warner-Bratzler shear force, pre-rigor injection of whole muscle. The following applies: 200 mM, calcium chloride 300 mM. The protocol:
as §1, §2
(§6) Tenderness of samples was evaluated by measuring Warner-Bratzler shear force. Steaks (2.54-cm thick) from the middle of each muscle were cut and frozen at 3, 7 and 14 days postmortem. Frozen steaks (2.54 cm thick) were thawed at 4° C. for 24 hours and cooked on Farberware Open Hearth Broilers (Model 350A Walter Kidde, Bronx, N.Y.) to an internal temperature of 40° C., turned, and cooked to a final internal temperature of 70° C. (AMSA, 1995). Temperature was monitored using an OMEGA thermocouple thermometer type T (Omega Engineering, Inc., Stamford, Conn.) inserted into the geometric center of a steak. The cooked steaks were chilled 2 hours at 2° C., and then 8 cores (1.27-cm diameter) were removed parallel to the muscle fiber orientation. Cores were sheared once each on an Instron Universal Testing Machine model 55R1123 (Instron, Canton, Mass.) with a Warner-Braztler attachment. The Instron was set up with a 500 kg load cell, full scale load=1 (0-10 kg), and crosshead speed=250 mm/mim.

Assay [6] has as its system supraspinatus beef muscles. Described as above. Particulars: 200 mM. The protocol: as §1, §2, §6
In assay [7] the test system is triceps brachii beef muscles. The description is as above. Particulars: 200 mM, calcium chloride 300 mM; for Shear force, 3 d: 3 d postmortem; for Shear force, 7 d: 7 d postmortem. The method, then: as §1, §2, §6
Setting [8] is: 24 h, 200 mM, calcium chloride 300 mM.
Setting [9] is: 72 h, 200 mM, calcium chloride 300 mM.

Consider `O=C([O-])CC(O)(CC(=O)[O-])C(=O)[O-].[Na+].[Na+].[Na+]` [Sodium citrate, sodium citrate], for which, in assay [1], the “Shear force, kg (72 h)” value is reported as 11.09^ab kg. Besides, the “Glycogen, 0 h” value is listed as 65.12 μmol/g muscle in assay [2] (0 h (before injection)), 45.18 μmol/g muscle in assay [3] (0 h (before injection)) and 38.74 μmol/g muscle in assay [4] (0 h (before injection)). For the same compound, the “Glycogen, 24 h” value is recorded as 52.83^a μmol/g muscle in assay [2] (setting [8]), 30.43 μmol/g muscle in assay [3] (setting [8]) and 32.93^b μmol/g muscle in assay [4] (24 h). Moreover, the “Glycogen, 72 h” value in assay [2] (setting [9]) was 45.65^a μmol/g muscle; in assay [3] (setting [9]), 22.65^ab μmol/g muscle; in assay [4] (72 h) it was 27.58^b μmol/g muscle. In addition, the “Shear force, 3 d” value is listed as 5.14 kg in assay [5] (3 d postmortem); 5.06^c kg in assay [6] (3 d postmortem, calcium chloride 300 mM); 4.54^c kg in assay [7]; “most tender meat; also recorded: more tender” in assay [7] (listed as NaC). The “Shear force, 7 d” value in assay [5] (7 d postmortem) is listed as 4.41 kg; in assay [6] (7 d postmortem, calcium chloride 300 mM) it was 4.89^b kg; in assay [7], 4.20^c kg; in assay [7] (listed as NaC), “lower shear force values than CaCl2”. Also, the entries for the “Shear force, 14 d” value in assay [5] (14 d postmortem) and in assay [7] (14 d postmortem) were 3.96 kg and 3.69 kg, respectively. Besides, the “reduced shear force compared with controls” value in assay [6] (supraspinatus, 3 days post-mortem, CaCl2 300 mM) is listed as 2.22 kg.
